Results from patent US20250195855A1, “INGESTIBLE DEVICE FOR DELIVERY OF THERAPEUTIC AGENT TO THE GASTROINTESTINAL TRACT” (BIORA THERAPEUTICS, INC., priority 2022, published 2025).

Legend:
[1] = set-up: species or system female Yucatan swine; details: in vivo
Procedure: The above externally-triggered study was also performed using semaglutide, a glucagon-like-peptide-1 (GLP-1) receptor agonist that stimulates insulin secretion and suppress glucagon release. Devices filled with ˜0.96 mg of semaglutide were administrated by intraduodenal (ID) endoscopic placement and were externally triggered in the proximal small intestine of the female Yucatan swine. Plasma samples were then collected from 0 to 240 hours post-dose. Systemic concentrations of semaglutide were measured using LC-MS-MS to evaluate the PK of semaglutide with the OBDS device via ID administration (animals 1003-ID; 1004-ID; 1005-ID; 1009-ID; 10053-ID and 1055-ID in FIG. 87) compared with the IV control (animal 1015-IV in FIG. 87).
Seven out of eight (7/8) devices were successfully advanced through the pyloric sphincter via endoscopic placement and triggered in the proximal small intestine.

[2] = 40 mg bi-weekly dose; cited from earlier work

| Molecule | clinical signs before or after dosing [1] | detectable drug levels up to (post-dosing) [1] | bioavailability, subcutaneous route over IV, estimated in human trials [2] |
| --- | --- | --- | --- |
| CC[C@H](C)[C@H](NC(=O)[C@H](Cc1ccccc1)NC(=O)[C@H](CCC(=O)O)NC(=O)[C@H](CCCCNC(=O)COCCOCCNC(=O)COCCOCCNC(=O)CC[C@H](NC(=O)CCCCCCCCCCCCCCCCC(=O)O)C(=O)O)NC(=O)[C@H](C)NC(=O)[C@H](C)NC(=O)[C@H](CCC(N)=O)NC(=O)CNC(=O)[C@H](CCC(=O)O)NC(=O)[C@H](CC(C)C)NC(=O)[C@H](Cc1ccc(O)cc1)NC(=O)[C@H](CO)NC(=O)[C@H](CO)NC(=O)[C@@H](NC(=O)[C@H](CC(=O)O)NC(=O)[C@H](CO)NC(=O)[C@@H](NC(=O)[C@H](Cc1ccccc1)NC(=O)[C@@H](NC(=O)CNC(=O)[C@H](CCC(=O)O)NC(=O)C(C)(C)NC(=O)[C@@H](N)Cc1cnc[nH]1)[C@@H](C)O)[C@@H](C)O)C(C)C)C(=O)N[C@@H](C)C(=O)N[C@@H](Cc1c[nH]c2ccccc12)C(=O)N[C@@H](CC(C)C)C(=O)N[C@H](C(=O)N[C@@H](CCCNC(=N)N)C(=O)NCC(=O)N[C@@H](CCCNC(=N)N)C(=O)NCC(=O)O)C(C)C [semaglutide] | No significant clinical signs were observed | up to 10 days | – |
| adalimumab | – | – | 64% |
